# Values of other authors as cited in patent US20120101168A1, “DEUTERIUM ENRICHED RASAGILINE” (priority 2010, published 2012).
# Tests used:
# CYP1A2 = CYP1A2 (Homo sapiens, UniProt P05177); settings: forms several primary metabolites
# MAO = settings: more potent, but not in-vitro
# Sequence of CYP1A2 (P05177 whole entry): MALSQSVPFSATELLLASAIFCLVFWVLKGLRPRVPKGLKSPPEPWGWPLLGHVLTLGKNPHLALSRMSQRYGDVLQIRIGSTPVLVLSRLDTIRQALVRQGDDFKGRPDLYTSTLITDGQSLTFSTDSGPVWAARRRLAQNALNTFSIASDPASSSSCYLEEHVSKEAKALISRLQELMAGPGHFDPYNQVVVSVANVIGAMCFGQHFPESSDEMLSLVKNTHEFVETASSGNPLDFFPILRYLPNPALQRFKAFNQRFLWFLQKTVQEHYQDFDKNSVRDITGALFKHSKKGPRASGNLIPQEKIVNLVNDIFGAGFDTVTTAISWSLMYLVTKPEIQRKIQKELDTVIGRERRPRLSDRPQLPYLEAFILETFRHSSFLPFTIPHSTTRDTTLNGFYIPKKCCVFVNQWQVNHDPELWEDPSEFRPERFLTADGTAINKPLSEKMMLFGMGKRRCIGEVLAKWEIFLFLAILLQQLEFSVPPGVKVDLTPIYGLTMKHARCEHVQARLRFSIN
Compound,metabolism by CYP1A2 (CYP1A2),MAO inhibition potency compared with non-deuterated phenelzine (MAO)
"C#CCN[C@@H]1CCc2ccccc21 [Rasagiline, R(+)-N-propargyl-1-aminoindan]",slowly metabolized,–
[2H]C([2H])(NN)C([2H])([2H])c1ccccc1 [deuterated phenelzine],–,more potent MAO inhibitor
